IC50 data for 28 compounds are collected here from patent US10464947B2 (Incyte Corporation, priority 2013, dated 2019).

The test system of the first experiment is KMS.12.BM cells. Description: KMS.12.BM Cell Viability Assay (Example B1). It is filed as cell-based, human. The settings on record: Homo sapiens, 72 h, 3 days, Cell Titer-GLO, read-out: KMS cellular IC50. The essentials: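 KMS.12.BM human myeloma cells, 5000 cells/well in RPMI with 10% FBS, exposed to a compound concentration range for 3 days. Viable cells measured by ATP-based Cell Titer-GLO luminescence after 10 min at room temperature.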
One may read the IC50 as the midpoint of a concentration-inhibition curve. `Cc1noc(C)c1-c1ccc2nc(N3CCN(S(C)(=O)=O)CC3)n3c2c1OC[C@@H]3c1ccccn1` [Example 173, (4S)-7-(3,5-dimethylisoxazol-4-yl)-2-[4-(methylsulfonyl)piperazin-1-yl]-4-pyridin-2-yl-4,5-dihydroimidazo[1,5,4-de][1,4]benzoxazine]: the IC50 is < 1 µM.

Consider `Cc1noc(C)c1-c1ccc2nc(N3CCN(C(C)C)CC3)n3c2c1OC[C@@H]3c1ccccn1` [Example 174, (4S)-7-(3,5-dimethylisoxazol-4-yl)-2-(4-isopropylpiperazin-1-yl)-4-pyridin-2-yl-4,5-dihydroimidazo[1,5,4-de][1,4]benzoxazine], for which the concentration for half-maximal inhibition (IC50) was < 1 µM.

For `Cc1noc(C)c1-c1ccc2nc(N3CCC(C#N)CC3)n3c2c1OC[C@@H]3c1ccccn1` [Example 175, 1-[(4S)-7-(3,5-dimethylisoxazol-4-yl)-4-pyridin-2-yl-4,5-dihydroimidazo[1,5,4-de][1,4]benzoxazin-2-yl]piperidine-4-carbonitrile], the half-maximal inhibitory concentration (IC50) was < 1 µM.

With `Cc1noc(C)c1-c1ccc2nc(N3CCC(CO)CC3)n3c2c1OC[C@@H]3c1ccccn1` [Example 176, {1-[(4S)-7-(3,5-dimethylisoxazol-4-yl)-4-pyridin-2-yl-4,5-dihydroimidazo[1,5,4-de][1,4]benzoxazin-2-yl]piperidin-4-yl}methanol], the IC50 is < 1 µM.

With `Cc1noc(C)c1-c1ccc2nc(N3CCN(CCO)CC3)n3c2c1OC[C@@H]3c1ccccn1` [Example 177, 2-{4-[(4S)-7-(3,5-dimethylisoxazol-4-yl)-4-pyridin-2-yl-4,5-dihydroimidazo[1,5,4-de][1,4]benzoxazin-2-yl]piperazin-1-yl}ethanol], the concentration for half-maximal inhibition (IC50) was < 1 µM.

As to `Cc1noc(C)c1-c1ccc2nc(N3CCN(c4ccccc4)CC3)n3c2c1OC[C@@H]3c1ccccn1` [Example 178, (4S)-7-(3,5-dimethylisoxazol-4-yl)-2-(4-phenylpiperazin-1-yl)-4-pyridin-2-yl-4,5-dihydroimidazo[1,5,4-de][1,4]benzoxazine], the IC50 is < 1 µM.

Turning to `Cc1noc(C)c1-c1ccc2nc(N3CCN(Cc4ccccc4)CC3)n3c2c1OC[C@@H]3c1ccccn1` [Example 179, (4S)-2-(4-benzylpiperazin-1-yl)-7-(3,5-dimethylisoxazol-4-yl)-4-pyridin-2-yl-4,5-dihydroimidazo[1,5,4-de][1,4]benzoxazine], the IC50 is < 1 µM.

Consider `Cc1noc(C)c1-c1ccc2nc(N3CC[C@@H](N(C)C)C3)n3c2c1OC[C@@H]3c1ccccn1` [Example 180A, (3R)-1-[(4S)-7-(3,5-dimethylisoxazol-4-yl)-4-pyridin-2-yl-4,5-dihydroimidazo[1,5,4-de][1,4]benzoxazin-2-yl]-N,N-dimethylpyrrolidin-3-amine], for which the IC50 is < 1 µM.

Consider `Cc1noc(C)c1-c1ccc2nc(N3CC[C@H](N(C)C)C3)n3c2c1OC[C@@H]3c1ccccn1` [Example 180B, (3S)-1-[(4S)-7-(3,5-dimethylisoxazol-4-yl)-4-pyridin-2-yl-4,5-dihydroimidazo[1,5,4-de][1,4]benzoxazin-2-yl]-N,N-dimethylpyrrolidin-3-amine], for which the IC50 is < 1 µM.

Turning to `CN[C@@H]1CCN(c2nc3ccc(-c4c(C)noc4C)c4c3n2[C@@H](c2ccccn2)CO4)C1` [Example 181A, (3R)-1-[(4S)-7-(3,5-dimethylisoxazol-4-yl)-4-pyridin-2-yl-4,5-dihydroimidazo[1,5,4-de][1,4]benzoxazin-2-yl]-N-methylpyrrolidin-3-amine], the IC50 was < 1 µM.

As to `CN[C@H]1CCN(c2nc3ccc(-c4c(C)noc4C)c4c3n2[C@@H](c2ccccn2)CO4)C1` [Example 181B, (3S)-1-[(4S)-7-(3,5-dimethylisoxazol-4-yl)-4-pyridin-2-yl-4,5-dihydroimidazo[1,5,4-de][1,4]benzoxazin-2-yl]-N-methylpyrrolidin-3-amine], the half-inhibitory concentration (IC50) was < 1 µM.

In the case of `Cc1noc(C)c1-c1ccc2nc(N3CC[C@@H](NC(=O)OC(C)(C)C)C3)n3c2c1OC[C@@H]3c1ccccn1` [Example 182A, tert-butyl {(3R)-1-[(4S)-7-(3,5-dimethylisoxazol-4-yl)-4-pyridin-2-yl-4,5-dihydroimidazo[1,5,4-de][1,4]benzoxazin-2-yl]pyrrolidin-3-yl}carbamate], the 50% inhibitory concentration (IC50) was < 1 µM.

Take `Cc1noc(C)c1-c1ccc2nc(N3CC[C@H](NC(=O)OC(C)(C)C)C3)n3c2c1OC[C@@H]3c1ccccn1` [Example 182B, tert-butyl {(3S)-1-[(4S)-7-(3,5-dimethylisoxazol-4-yl)-4-pyridin-2-yl-4,5-dihydroimidazo[1,5,4-de][1,4]benzoxazin-2-yl]pyrrolidin-3-yl}carbamate]: the half-inhibitory concentration (IC50) is < 1 µM.

With `Cc1noc(C)c1-c1ccc2nc(N3CCN(CC4CC4)CC3)n3c2c1OC[C@@H]3c1ccccn1` [Example 183, (4S)-2-[4-(cyclopropylmethyl)piperazin-1-yl]-7-(3,5-dimethylisoxazol-4-yl)-4-pyridin-2-yl-4,5-dihydroimidazo[1,5,4-de][1,4]benzoxazine], the half-inhibitory concentration (IC50) was < 1 µM.

With `COCCN1CCN(c2nc3ccc(-c4c(C)noc4C)c4c3n2[C@@H](c2ccccn2)CO4)CC1` [Example 184, (4S)-7-(3,5-dimethylisoxazol-4-yl)-2-[4-(2-methoxyethyl)piperazin-1-yl]-4-pyridin-2-yl-4,5-dihydroimidazo[1,5,4-de][1,4]benzoxazine], the IC50 is < 1 µM.

With `CNc1nc2ccc(-c3c(C)noc3C)c3c2n1C(c1ccccn1)CO3` (stereo not shown) [Example 186, 7-(3,5-dimethylisoxazol-4-yl)-N-methyl-4-pyridin-2-yl-4,5-dihydroimidazo[1,5,4-de][1,4]benzoxazin-2-amine], the 50% inhibitory concentration (IC50) was < 1 µM.

`Cc1noc(C)c1-c1ccc2nc(N(C)C)n3c2c1OCC3c1ccccn1` (stereo not shown) [Example 187, 7-(3,5-dimethylisoxazol-4-yl)-N,N-dimethyl-4-pyridin-2-yl-4,5-dihydroimidazo[1,5,4-de][1,4]benzoxazin-2-amine]: the IC50 is < 1 µM.

For `Cc1noc(C)c1-c1ccc2nc(N3CCC(C(N)=O)CC3)n3c2c1OC[C@@H]3c1ccccn1` [Example 188, 1-[(4S)-7-(3,5-dimethylisoxazol-4-yl)-4-pyridin-2-yl-4,5-dihydroimidazo[1,5,4-de][1,4]benzoxazin-2-yl]piperidine-4-carboxamide], the IC50 is < 1 µM.

Take `CNC(=O)C1CCN(c2nc3ccc(-c4c(C)noc4C)c4c3n2[C@@H](c2ccccn2)CO4)CC1` [Example 189, 1-[(4S)-7-(3,5-dimethylisoxazol-4-yl)-4-pyridin-2-yl-4,5-dihydroimidazo[1,5,4-de][1,4]benzoxazin-2-yl]-N-methylpiperidine-4-carboxamide]: the IC50 is < 1 µM.

For the compound `CC(=O)NC1CCN(c2nc3ccc(-c4c(C)noc4C)c4c3n2[C@@H](c2ccccn2)CO4)CC1` [Example 190, N-{1-[(4S)-7-(3,5-dimethylisoxazol-4-yl)-4-pyridin-2-yl-4,5-dihydroimidazo[1,5,4-de][1,4]benzoxazin-2-yl]piperidin-4-yl}acetamide], the concentration for half-maximal inhibition (IC50) was < 1 µM.

As for `Cc1noc(C)c1-c1ccc2nc(N3CCN(CC(N)=O)CC3)n3c2c1OC[C@@H]3c1ccccn1` [Example 191, 2-{4-[(4S)-7-(3,5-dimethylisoxazol-4-yl)-4-pyridin-2-yl-4,5-dihydroimidazo[1,5,4-de][1,4]benzoxazin-2-yl]piperazin-1-yl}acetamide], the IC50 is < 1 µM.

Consider `CCN1CCN(c2nc3ccc(-c4c(C)noc4C)c4c3n2[C@@H](c2ccccn2)CO4)CC1` [Example 192, (4S)-7-(3,5-dimethylisoxazol-4-yl)-2-(4-ethylpiperazin-1-yl)-4-pyridin-2-yl-4,5-dihydroimidazo[1,5,4-de][1,4]benzoxazine], for which the IC50 was < 1 µM.

Regarding `Cc1noc(C)c1-c1ccc2nc(N3CCN4CCC[C@H]4C3)n3c2c1OC[C@@H]3c1ccccn1` [Example 193A, (4S)-7-(3,5-dimethylisoxazol-4-yl)-2-[(8aS)-hexahydropyrrolo[1,2-a]pyrazin-2(1H)-yl]-4-pyridin-2-yl-4,5-dihydroimidazo[1,5,4-de][1,4]benzoxazine], the half-maximal inhibitory concentration (IC50) was < 1 µM.

Consider `Cc1noc(C)c1-c1ccc2nc(N3CCN4CCC[C@@H]4C3)n3c2c1OC[C@@H]3c1ccccn1` [Example 193B, (4S)-7-(3,5-dimethylisoxazol-4-yl)-2-[(8aR)-hexahydropyrrolo[1,2-a]pyrazin-2(1H)-yl]-4-pyridin-2-yl-4,5-dihydroimidazo[1,5,4-de][1,4]benzoxazine], for which the IC50 is < 1 µM.

On to `Cc1noc(C)c1-c1ccc2nc(N3CCC(C)(O)CC3)n3c2c1OC[C@@H]3c1ccccn1` [Example 194, 1-[(4S)-7-(3,5-dimethylisoxazol-4-yl)-4-pyridin-2-yl-4,5-dihydroimidazo[1,5,4-de][1,4]benzoxazin-2-yl]-4-methylpiperidin-4-ol], for which the half-inhibitory concentration (IC50) is < 1 µM.

Regarding `Cc1noc(C)c1-c1ccc2nc(N3CCNC(=O)C3C)n3c2c1OC[C@@H]3c1ccccn1` (stereo partly drawn) [Example 195, 4-[(4S)-7-(3,5-dimethylisoxazol-4-yl)-4-pyridin-2-yl-4,5-dihydroimidazo[1,5,4-de][1,4]benzoxazin-2-yl]-3-methylpiperazin-2-one], the IC50 was < 1 µM.

For `Cc1noc(C)c1-c1ccc2nc(N3CC(NC(=O)OC(C)(C)C)C3)n3c2c1OC[C@@H]3c1ccccn1` [Example 196, tert-butyl {1-[(4S)-7-(3,5-dimethylisoxazol-4-yl)-4-pyridin-2-yl-4,5-dihydroimidazo[1,5,4-de][1,4]benzoxazin-2-yl]azetidin-3-yl}carbamate], the IC50 was < 1 µM.

Still in this experiment, the particulars now being: Homo sapiens, KMS-12-BM, 72 h, 3 days, Cell Titer-GLO, read-out: KMS cellular IC50.
As for `Cc1noc(C)c1-c1ccc2nc(N(C)CCO)n3c2c1OCC3c1ccccn1` (stereo not shown) [Example 185, 2-[[7-(3,5-dimethylisoxazol-4-yl)-4-pyridin-2-yl-4,5-dihydroimidazo[1,5,4-de][1,4]benzoxazin-2-yl](methyl)amino]ethanol], the IC50 is < 1 µM.
